Results as given in patent publication US9133207B2, “Tetrandrine derivatives with substituted 5-carbon, preparation method and use thereof” (Hangzhou Bensheng Pharmaceutical Co., Ltd., priority 2011, dated 2015).
Converted amounts (≈) assume the structure as drawn.

Key:
[1] = system: U87 MG (malignant glioma cell); assay: Solid tumor cell growth inhibition, MTT, 72 h (Example 7); assay type: cell-based; settings: Homo sapiens, U-87 MG
Procedure, shortened: (§1)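 Cells (4000/well) were seeded in DMEM high glucose with 10% FBS and grown 24 h at 37 °C, 5% CO2, then exposed to tetrandrine derivatives at different concentrations for 72 h. Viable cells were measured by MTT, with viability expressed as % of untreated control (100%).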

[2] = system: SK-OV-3 (ovarian cancer cell); assay: as above; assay type: cell-based; settings: Homo sapiens
Procedure, shortened: as §1

[3] = system: RKO (human colon adenocarcinoma cell); assay: as above; assay type: cell-based; settings: Homo sapiens; 72 h, MTT, RKO
Procedure, shortened: as §1

A549 (human lung cancer) = assay: as above; assay type: cell-based; settings: Homo sapiens; 72 h, MTT, A549
Procedure, shortened: as §1

[4] = system: Huh7 (human liver cancer cell); assay: as above; assay type: cell-based; settings: Homo sapiens; 72 h, MTT, Huh-7
Procedure, shortened: as §1

[5] = system: Hela (human cervical cancer cell); assay: as above; assay type: cell-based; settings: Homo sapiens; 72 h, MTT, Hela
Procedure, shortened: as §1

[6] = system: MGC 803 (human gastric cancer cell); assay: as above; assay type: cell-based; settings: Homo sapiens
Procedure, shortened: as §1

[7] = system: CNE (nasopharyngeal carcinoma cell); assay: as above; assay type: cell-based; settings: Homo sapiens
Procedure, shortened: as §1

[8] = system: Becap37 (human breast cancer cell); assay: as above; assay type: cell-based; settings: Homo sapiens; 72 h, MTT, Becap-37
Procedure, shortened: as §1

[9] = system: RPMI8226 (multiple myeloma); assay: Multiple myeloma cell growth inhibition, MTT, 72 h (Example 6); assay type: cell-based, human; settings: Homo sapiens, RPMI-8226; 72 h, MTT, RPMI8226
Procedure, shortened: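 RPMI8226 cells (6000 per well) in RPMI 1640 with 10% FBS were exposed to a range of tetrandrine derivative concentrations for 72 h at 37 °C under 5% CO2. Viable cell concentration was then measured by MTT.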

[10] = system: human non-small cell lung cancer cell line A549 transplanted tumor; assay: Experiment 8-1: transplanted tumor of human lung cancer in nude mice; assay type: in vivo, BALB/c nude mice; settings: for Mass of tumor / Tumor Inhibition rate (%): 50 mg/kg intragastric, 3 times a day, 10 days; for Mass of tumor: Day 27, M±SD; for Tumor Inhibition rate (%): Day 27, control = zero
Description: Cell lines: human non-small cell lung cancer cell line A549, from China Center for Type Culture Collection (CCTCC);
(§2) BS-TE-403 and BS-TE-333 (the present invention), and tetrandrine TTD from Jiangxi Jinfurong Pharmaceutical Co., Ltd. All compounds are administered at the dosage of 50 mg/kg weight each time.
Under sterile conditions, the above tumor cells in the logarithmic growth phase are collected and injected by subcutaneous injection in an amount of 5×10^6/0.2 ml/nude mice (cell viability>95%) into the right subaxillary of the nude mice, thus establishing a transplated tumor model of human non-small cell lung cancer in nude mice.
(§3) The experiments are divided into 4 groups: negative control group (solvent group), positive control group (lead compound TTD group), BS-TE-403 group and BS-TE-333 group.
(§4) The administrations are successive for 10 days.

[11] = Experiment 8-1: body weight of nude mice, preliminary toxicity; assay type: in vivo, BALB/c nude mice; settings: for Weight (g) Final: 50 mg/kg intragastric, 3 times a day, 10 days, final body weight; for Weight (g) Final / Weight (g) Initial: M±SD; for Weight (g) Initial: nude mice body weight before administration
Description: as §2, §3, §4

MG63 (osteosarcoma) = assay: Solid tumor cell growth inhibition, MTT, 72 h (Example 7); assay type: cell-based, human; settings: Homo sapiens; 72 h, MTT, MG-63
Procedure, shortened: as §1

[12] = system: Hep-2 (laryngeal carcinoma); assay: as above; assay type: cell-based, human; settings: Homo sapiens; 72 h, MTT, Hep 2
Procedure, shortened: as §1

[13] = system: CaES-17 (esophageal cancer cell); assay: as above; assay type: cell-based, human; settings: Homo sapiens, CaEs17; 72 h, MTT, CAES-17
Procedure, shortened: as §1

[14] = system: PANC-1 (pancreatic cancer); assay: as above; assay type: cell-based, human; settings: Homo sapiens; 72 h, MTT, PANC-1
Procedure, shortened: as §1

PC-3 (prostate cancer) = assay: as above; assay type: cell-based, human; settings: Homo sapiens; 72 h, MTT, PC-3
Procedure, shortened: as §1

[15] = system: Jurkat (acute lymphoblastic leukemia, ALL); assay: Leukemia cell growth inhibition, MTT, 72 h (Example 5); assay type: cell-based, human; settings: Homo sapiens, Jurkat; 72 h, MTT
Procedure, shortened: (§5)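 6000 cells per well were seeded in RPMI 1640 with 10% FBS, exposed to graded concentrations of 5-substituted tetrandrine derivatives, and held 72 hours at 37° C, 5% CO2. Viable cell concentration was then measured by MTT.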

[16] = system: K562/adr (drug-resistant, chronic myeloid leukemia, CML); assay: as above; assay type: cell-based, human; settings: Homo sapiens, K562/Adr; 72 h, MTT
Procedure, shortened: as §5

[17] = system: Kasumi-1 (acute myeloid leukemia M2 type, AML-M2); assay: as above; assay type: cell-based, human; settings: Homo sapiens, Kasumi 1
Procedure, shortened: as §5

[18] = system: NB4 (acute promyelocytic leukemia, AML); assay: as above; assay type: cell-based, human; settings: Homo sapiens; 72 h, MTT
Procedure, shortened: as §5

[19] = system: H9 (acute lymphoblastic leukemia, ALL); assay: as above; assay type: cell-based, human; settings: Homo sapiens; 72 h, MTT
Procedure, shortened: as §5

[20] = system: drug-resistant lung cancer cell GLC-82/ADR; settings: while adriamycin is used, without tetrandrine; cited from earlier work
[21] = system: human breast cancer multidrug resistant lines MCF-7/ADR; settings: 2.5 μmol/L tetrandrine; cited from earlier work

Structure (SMILES): COc1ccc2cc1Oc1ccc(cc1)C[C@H]1c3cc(c(OC)cc3CCN1C)Oc1c(OC)c(OC)c(CN3CCN(C(C)C)CC3)c3c1[C@H](C2)N(C)CC3 [BS-TE-333]
- IC50 [1]: 0.5 µg/mL (≈ 0.655 µM)
- IC90 [1]: 1.51 µg/mL (≈ 1.98 µM)
- IC50 [2]: 3.04 µg/mL (≈ 3.98 µM)
- IC90 [2]: > 16 µg/mL
- IC50 [3]: 0.54 µg/mL (≈ 0.708 µM)
- IC90 [3]: 1.74 µg/mL (≈ 2.28 µM)
- IC50 (A549 (human lung cancer)): 1.5 µg/mL (≈ 1.97 µM)
- IC90 (A549 (human lung cancer)): 11 µg/mL (≈ 14.4 µM)
- IC50 [4]: 1.64 µg/mL (≈ 2.15 µM)
- IC90 [4]: 2.45 µg/mL (≈ 3.21 µM)
- IC50 [5]: 1.69 µg/mL (≈ 2.21 µM)
- IC90 [5]: 5 µg/mL (≈ 6.55 µM)
- IC50 [6]: 0.84 µg/mL (≈ 1.1 µM)
- IC90 [6]: 5.3 µg/mL (≈ 6.95 µM)
- IC50 [7]: 2.6 µg/mL (≈ 3.41 µM)
- IC90 [7]: 5.6 µg/mL (≈ 7.34 µM)
- IC50 [8]: 1 µg/mL (≈ 1.31 µM)
- IC90 [8]: 4.5 µg/mL (≈ 5.9 µM)
- IC50 [9]: 0.06 µg/mL (≈ 0.0786 µM)
- IC90 [9]: 2.34 µg/mL (≈ 3.07 µM)
- effect on transplanted tumor of human lung cancer in nude mice (FIG. 2) ([10]; 50 mg/kg): exhibit inhibiting effects
- Mass of tumor [10]: 639.25 ± 285.20 mg
- Tumor Inhibition rate (%) [10]: 31.15%
- toxic or side effect under such a dosage ([11]; 50 mg/kg): has caused some toxic and side effect
- weight loss as compared with the weight in the control group (FIG. 1) ([11]; 50 mg/kg): relatively obvious
- Weight (g) Final [11]: 16.95 ± 2.30 g
- Weight (g) Initial [11]: 21.3 ± 0.24 g
- IC50 (MG63 (osteosarcoma)): 0.7 µg/mL (≈ 0.917 µM)
- IC90 (MG63 (osteosarcoma)): 1.3 µg/mL (≈ 1.7 µM)
- IC50 [12]: 1.72 µg/mL (≈ 2.25 µM)
- IC90 [12]: 9.69 µg/mL (≈ 12.7 µM)
- IC50 [13]: 2.35 µg/mL (≈ 3.08 µM)
- IC90 [13]: 17.1 µg/mL (≈ 22.4 µM)
- IC50 [14]: 1.69 µg/mL (≈ 2.21 µM)
- IC90 [14]: 9.93 µg/mL (≈ 13 µM)
- IC50 (PC-3 (prostate cancer)): 1.85 µg/mL (≈ 2.42 µM)
- IC90 (PC-3 (prostate cancer)): 2.9 µg/mL (≈ 3.8 µM)
- IC50 [15]: 0.81 µg/mL (≈ 1.06 µM)
- IC90 [15]: 4.18 µg/mL (≈ 5.48 µM)
- IC50 [16]: 0.43 µg/mL (≈ 0.564 µM)
- IC90 [16]: 1.91 µg/mL (≈ 2.5 µM)
- IC50 [17]: 0.77 µg/mL (≈ 1.01 µM)
- IC90 [17]: 3.29 µg/mL (≈ 4.31 µM)
- IC50 [18]: 0.48 µg/mL (≈ 0.629 µM)
- IC90 [18]: 1 µg/mL (≈ 1.31 µM)
- IC50 [19]: 1.14 µg/mL (≈ 1.49 µM)
- IC90 [19]: 1.84 µg/mL (≈ 2.41 µM)

Structure (SMILES): COc1cccc2c1C(=O)c1c(O)c3c(c(O)c1C2=O)C[C@@](O)(C(=O)CO)C[C@@H]3O[C@H]1C[C@H](N)[C@H](O)[C@H](C)O1 [adriamycin]
- drug-resistance index [20]: 5.43

Structure (SMILES): COc1ccc2cc1Oc1ccc(cc1)C[C@H]1c3cc(c(OC)cc3CCN1C)Oc1c(OC)c(OC)cc3c1[C@H](C2)N(C)CC3 [TTD, 6,6′,7,12-tetramethoxy-2,2′dimethylberbamine, reference compound]
- IC50 [1]: 0.66 µg/mL (≈ 1.06 µM)
- IC90 [1]: 3.58 µg/mL (≈ 5.75 µM)
- IC50 [2]: 9.04 µg/mL (≈ 14.5 µM)
- IC90 [2]: > 16 µg/mL
- IC50 [3]: 2.72 µg/mL (≈ 4.37 µM)
- IC90 [3]: 6.3 µg/mL (≈ 10.1 µM)
- IC50 (A549 (human lung cancer)): 2.9 µg/mL (≈ 4.66 µM)
- IC90 (A549 (human lung cancer)): 12.5 µg/mL (≈ 20.1 µM)
- IC50 [4]: 5.05 µg/mL (≈ 8.11 µM)
- IC90 [4]: 7.81 µg/mL (≈ 12.5 µM)
- IC50 [5]: 4.05 µg/mL (≈ 6.5 µM)
- IC90 [5]: 9.24 µg/mL (≈ 14.8 µM)
- IC50 [6]: 1.97 µg/mL (≈ 3.16 µM)
- IC90 [6]: 7.41 µg/mL (≈ 11.9 µM)
- IC50 [7]: 3.3 µg/mL (≈ 5.3 µM)
- IC90 [7]: 6.2 µg/mL (≈ 9.96 µM)
- IC50 [8]: 6.9 µg/mL (≈ 11.1 µM)
- IC90 [8]: 15 µg/mL (≈ 24.1 µM)
- IC50 [9]: 0.37 µg/mL (≈ 0.594 µM)
- IC90 [9]: 2.54 µg/mL (≈ 4.08 µM)
- increase of adriamycin cytotoxicity on drug-resistant tumors [21]: 20.4 times
- Mass of tumor [10]: 799.00 ± 349.09 mg
- Tumor Inhibition rate (%) [10]: 13.95%
- Weight (g) Final [11]: 19.10 ± 2.02 g
- Weight (g) Initial [11]: 22.40 ± 0.26 g
- IC50 (MG63 (osteosarcoma)): 1.9 µg/mL (≈ 3.05 µM)
- IC90 (MG63 (osteosarcoma)): 3.7 µg/mL (≈ 5.94 µM)
- IC50 [12]: 3.88 µg/mL (≈ 6.23 µM)
- IC90 [12]: 11.9 µg/mL (≈ 19 µM)
- IC50 [13]: 8.34 µg/mL (≈ 13.4 µM)
- IC90 [13]: > 16 µg/mL
- IC50 [14]: 3.16 µg/mL (≈ 5.07 µM)
- IC90 [14]: 7.02 µg/mL (≈ 11.3 µM)
- IC50 (PC-3 (prostate cancer)): 6.01 µg/mL (≈ 9.65 µM)
- IC90 (PC-3 (prostate cancer)): 10.8 µg/mL (≈ 17.3 µM)
- IC50 [15]: 2.09 µg/mL (≈ 3.36 µM)
- IC90 [15]: 9.85 µg/mL (≈ 15.8 µM)
- IC50 [16]: 0.44 µg/mL (≈ 0.707 µM)
- IC90 [16]: 2.14 µg/mL (≈ 3.44 µM)
- IC50 [17]: 1.69 µg/mL (≈ 2.71 µM)
- IC90 [17]: 8.24 µg/mL (≈ 13.2 µM)
- IC50 [18]: 1.6 µg/mL (≈ 2.57 µM)
- IC90 [18]: 4.1 µg/mL (≈ 6.58 µM)
- IC50 [19]: 2.69 µg/mL (≈ 4.32 µM)
- IC90 [19]: 6.4 µg/mL (≈ 10.3 µM)
